Data taken from ChEMBL document CHEMBL1143783, “In vitro biotransformations of the prostaglandin D2 (DP) antagonist MK-0524 and synthesis of metabolites” (Bioorg Med Chem Lett, 2007).

Tested on: Plasma
Experiment: Stability in rat plasma
Format: ADME, cell-free

SMILES: CS(=O)(=O)c1cc(F)cc2c3c(n(Cc4ccc(Cl)cc4)c12)[C@@H](CC(=O)O)C[C@@H]3O
- Stability: < 5%

SMILES: CS(=O)(=O)c1cc(F)cc2c3c(n(Cc4ccc(Cl)cc4)c12)[C@@H](CC(=O)O)C[C@H]3O
- Stability: < 5%
